This assay deals with LMPTP-A (Low Molecular Weight Protein Tyrosine Phosphatase-A) enzyme (Homo sapiens (Human), UniProt P24666). The assay can be described thus: LMPTP primary screening / LMPTP (OMFP) enzyme inhibition assay, fluorescence intensity. In kind it is biochemical. The note with it: LMPTP-A, OMFP substrate, method of Example 2; read-out: IC50. The method in brief:
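0.625 nM LMPTP-A with 400 μM OMFP substrate in 50 mM Bis-Tris pH 6.0, 1 mM DTT, 0.01% Triton X-100, […]. Compounds at 20 μM final. Incubated 50 min at room temperature in the dark; fluorescence intensity read.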
Sequence of LMPTP-A (Low Molecular Weight Protein Tyrosine Phosphatase-A) enzyme (P24666 whole entry): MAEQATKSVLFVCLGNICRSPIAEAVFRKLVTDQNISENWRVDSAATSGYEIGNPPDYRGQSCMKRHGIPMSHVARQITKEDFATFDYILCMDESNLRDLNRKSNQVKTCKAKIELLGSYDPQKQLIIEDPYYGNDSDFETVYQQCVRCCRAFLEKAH
In the case of `Clc1cccc(-c2cc(NCCCc3cccnc3)c3ccccc3n2)c1` [Compound I202], the IC50 lay in the range of 0.801 to 5 µM. With `COc1ccc(-c2cc(NCCCc3cccnc3)c3ccccc3n2)cc1` [Compound I203] the figure was 0.801 to 5 µM; with `Fc1cc(Cl)ccc1-c1cc(NCCCc2cccnc2)c2ccccc2n1` [Compound I204, [2-(4-chloro-2-fluorophenyl)(4-quinolyl)](3-(3-pyridyl)propyl)amine], 0.801 to 5 µM. With `c1ccc2c(NCCCN3CCCCC3)cc(-c3ccc(-c4nn[nH]n4)cc3)nc2c1` [Compound I205] the figure was 0.801 to 5 µM. With `CCN1CCN(Cc2ccc(Nc3cc(-c4ccc(OC)cc4)nc4c3CCCC4)cc2)CC1` [Compound I206, {4-[(4-ethylpiperazinyl)methyl]phenyl}[2-(4-methoxyphenyl)(4-5,6,7,8-tetrahydroquinolyl)]amine] the figure was 0.801 to 5 µM; with `COc1ccc(-c2cc(NCCCN3CCCCC3)c3c(n2)CCCC3)cc1` [Compound I208], 0.801 to 5 µM. As for `COc1ccc(-c2cc(Nc3cccc(CN4CCCC4)c3)c3c(n2)CCCC3)cc1` [Compound I209, [2-(4-methoxyphenyl)(4-5,6,7,8-tetrahydroquinolyl)][3-(pyrrolidinylmethyl)phenyl]amine], the concentration for half-maximal inhibition (IC50) lay within 0.801 to 5 µM. The figure for `COc1ccc(-c2cc(NCc3ccc(CN4CCCCC4)cc3)c3ccccc3n2)cc1` [Compound I210, [2-(4-methoxyphenyl)(4-quinolyl)]{[4-(piperidylmethyl)phenyl]methyl}amine] is 0.801 to 5 µM; for `COc1ccc(-c2cc(NCc3ccc(CN4CCOCC4)cc3)c3ccccc3n2)cc1` [Compound I211, [2-(4-methoxyphenyl)(4-quinolyl)]{[4-(morpholin-4-ylmethyl)phenyl]methyl}amine] it is 0.801 to 5 µM; for `NC(=O)c1ccc(-c2cc(NCc3ccc(CN4CCOCC4)cc3)c3ccccc3n2)cc1` [Compound I212, 4-[4-({[4-(morpholin-4-ylmethyl)phenyl]methyl}amino)-2-quinolyl]benzamide] it is over 5 µM. With `NC(=O)c1ccc(-c2cc(NCc3ccc(CN4CCCCC4)cc3)c3ccccc3n2)cc1` [Compound I213, 4-[4-({[4-(piperidylmethyl)phenyl]methyl}amino)-2-quinolyl]benzamide] the figure was over 5 µM. In the case of `CCN1CCN(Cc2ccc(CNc3cc(-c4ccc(C(N)=O)cc4)nc4ccccc34)cc2)CC1` [Compound I214, 4-{4-[({4-[(4-ethylpiperazinyl)methyl]phenyl}methyl)amino]-2-quinolyl}benzamide], the 50% inhibitory concentration (IC50) was over 5 µM. With `CCN1CCN(Cc2ccc(Nc3cc(-c4ccc(C(N)=O)cc4)nc4ccccc34)cc2)CC1` [Compound I215, 4-[4-({4-[(4-ethylpiperazinyl)methyl]phenyl}amino)-2-quinolyl]benzamide] the figure was over 5 µM. With `NC(=O)c1ccc(-c2cc(Nc3ccc(CCN4CCNCC4)cc3)c3ccccc3n2)cc1` [Compound I216, 4-(4-{[4-(2-piperazinylethyl)phenyl]amino}-2-quinolyl)benzamide] the figure was over 5 µM; with `CN(C)CCc1ccc(Nc2cc(-c3ccc(C(N)=O)cc3)nc3ccccc23)cc1` [Compound I217, 4-[4-({4-[2-(dimethylamino)ethyl]phenyl}amino)-2-quinolyl]benzamide], over 5 µM. The figure for `CCN(CC)CCCNc1cc(-c2ccc(C(N)=O)cc2)nc2ccccc12` [Compound I218, 4-(4-{[3-(diethylamino)propyl]amino}-2-quinolyl)benzamide] is over 5 µM; for `NC(=O)c1ccc(-c2cc(NCCCN3CCCCCC3)c3ccccc3n2)cc1` [Compound I219, 4-{4-[(3-azaperhydroepinylpropyl)amino]-2-quinolyl}benzamide] it is over 5 µM. `NC(=O)c1ccc(-c2cc(Nc3ccc(CC4CCNCC4)cc3)c3ccccc3n2)cc1` [Compound I220, 4-(4-{[4-(4-piperidylmethyl)phenyl]amino}-2-quinolyl)benzamide]: the IC50 is over 5 µM. The figure for `O=C1Cc2ccc(-c3cc(NCCCN4CCCCC4)c4ccccc4n3)cc2N1` [Compound I221] is 0.801 to 5 µM.

Values taken from patent US10626094B2 (La Jolla Institute of Allergy & Immunology, priority 2014, dated 2020).
